Assay results: patent publication US12491187B2, “Use of MCT1 inhibitors to enhance insulin sensitivity” (H. LEE MOFFIT CANCER CENTER AND RESEARCH INSTITUTE, INC., priority 2022, dated 2025)

Columns and labels:
[1] = test system: differentiated 3T3-L1 cells; experiment: NADP+ + NADPH bioavailability (NADP+/NADPH-Glo); type: cell-based, murine; settings: 1 μM
Procedure: NADP++NADPH Bioavailability: 3T3-L1 cells were seeded, differentiated and treated with or without AZD3965 (1 μM) for up to 72 hr in clear 96 well plates (Corning®). Following treatment, the NADP+/NADPH-Glo™ (Promega®) kit was used to measure the total NADP++NADPH concentration within each sample according to the manufacturer's instructions. In the presence of either NADP+ or NADPH, an enzyme ‘Reductase’ reduces a pro-luciferin reductase substrate to form luciferin which emits a luminescent signal directly proportional to the quantity of NADP+ and NADPH. Luminescence was read on a spectrophotometer (FlexStation 3; Molecular Devices).

[2] = test system: differentiated 3T3-L1 (WT) cells; experiment: Immunoblotting of protein expression in differentiated adipocytes; type: cell-based, murine
Procedure: Immunoblotting: For the collection of membrane bound proteins (i.e., MCT1), cells were lysed and the membrane fraction of protein was isolated as previously described (Sadler, J B A, et al. Preparation of a total membrane fraction from 3T3-L1 adipocytes (Cold Spring Harb. Protoc. 2016, 2016, pdb-prot083675). Briefly, cells were lysed with ice cold HES buffer (250 mM sucrose, 20 mM HEPES, 1 mM EDTA, pH7.4) containing a cocktail of protease and phosphatase inhibitors (Roche Diagnostic) and centrifuged for 5 min (500 g at 4° C.) to pellet out nuclei. The remaining supernatant (containing cytosolic and membrane bound proteins) was collected. For all other immunoblotting experiments, RIPA lysis buffer containing protease and phosphatase inhibitors was used, and protein was isolated via centrifugation at 17,000 g for 10 min at 4° C. For all samples, protein concentration of the lysates was measured using the BCA Protein Assay Kit (Pierce Biotechnologies). Diluted lysates were added to Laemmli sample buffer and denatured at 95° C. for 5 min. After sample preparation, proteins were resolved via SDS-polyacrylamide gel electrophoresis (4-12%) using NuPAGE 4-12% Bis-Tris gels (Invitrogen), and transferred to nitrocellulose membranes. Blots were placed in blocking buffer (LI-COR Biosciences) and incubated overnight at 4° C. with primary antibodies at the recommended dilution. Blots were washed 3 times (5 minutes per wash) in TBST (20 mM Tris, pH 7.6, 140 mM NaCl, and 0.1% Tween-20), and then incubated with the appropriate IRDye-conjugated secondary antibody (LI-COR Biosciences) diluted in blocking buffer and incubated at room temperature for an hr. […] Bands were quantified using Image Studio™ (LI-COR Biosciences).

Q: `Cc1[nH]nc(C(F)(F)F)c1Cc1sc2c(c1C(=O)N1C[C@](C)(O)CO1)c(=O)n(C)c(=O)n2C(C)C` [AZD3965, 5-[[(4S)-4-hydroxy-4-methyl-2-isoxazolidinyl]carbonyl]-3-methyl-1-(1-methylethyl)-6-[[5-methyl-3-(trifluoromethyl)-1H-pyrazol-4-yl]methyl]-thieno[2,3-d]pyrimidine-2,4 (1H, 3H)-dione] was tested. Which “concentration of NADP+/NADPH cofactor species” value ([1]; 24 hr, 48 hr and 72 hr) did it give?
A: subtle, yet significant decrease

Q: And the “decrease in intracellular concentrations of NADP+ (H)” value ([1]; up to 72 hr)?
A: less than 15%

Q: What about the “total CDK1 protein expression” value ([2]; 1 μM, up to 72 hr) of the same molecule?
A: no change

Q: And the “CDK1 phosphorylation at Tyr15” value ([2]; 1 μM, up to 72 hr, normalized to total CDK1 and α-tubulin)?
A: significant decrease

Q: And the HSL protein expression ([2]; mature adipocytes, 24-72 hr treatment)?
A: significant decrease

Q: And the FABP4 protein expression ([2]; mature adipocytes, 48 hr treatment)?
A: significantly increased

Q: And the FABP4 protein expression ([2]; mature adipocytes, by 72 hr treatment)?
A: this increase was attenuated

Q: And the PPARγ protein expression ([2]; mature adipocytes, up to 72 hr treatment)?
A: no changes
